Assay [1] has as its system Replicase polyprotein 1ab (Severe acute respiratory syndrome coronavirus 2), P0DTD1 [UNDEFINED MUTATION]. The assay can be described thus: Inhibition of recombinant SARS-COV2 main protease S46TMSK mutant expressed in Escherichia coli BL21 (DE3) using DABCYL-KTSAVLQSGFRKME-EDANS-NH2 as fluorogenic substrate at 5 to 50 uM preincubated for 10 mins followed by substrate addition by FRET assay. The following applies: dose 5-50 µM.

For assay [2] the test system is unchanged. The assay can be described thus: Inhibition of recombinant SARS-COV2 main protease L50TMSK mutant expressed in Escherichia coli BL21 (DE3) using DABCYL-KTSAVLQSGFRKME-EDANS-NH2 as fluorogenic substrate at 5 to 50 uM preincubated for 10 mins followed by substrate addition by FRET assay. Particulars: dose 5-50 µM.
Assay [3] shares this test system. The experiment in a line: Inhibition of recombinant SARS-COV2 main protease N72TMSK mutant expressed in Escherichia coli BL21 (DE3) using DABCYL-KTSAVLQSGFRKME-EDANS-NH2 as fluorogenic substrate at 5 to 50 uM preincubated for 10 mins followed by substrate addition by FRET assay. Particulars: dose 5-50 µM.
For assay [4] the test system is unchanged. The experiment in a line: Inhibition of recombinant SARS-COV2 main protease N142TMSK mutant expressed in Escherichia coli BL21 (DE3) using DABCYL-KTSAVLQSGFRKME-EDANS-NH2 as fluorogenic substrate at 5 to 50 uM preincubated for 10 mins followed by substrate addition by FRET assay. The following applies: dose 5-50 µM.
Assay [5] has the same test system. The assay can be described thus: Inhibition of recombinant SARS-COV2 main protease V186TMSK mutant expressed in Escherichia coli BL21 (DE3) using DABCYL-KTSAVLQSGFRKME-EDANS-NH2 as fluorogenic substrate at 5 to 50 uM preincubated for 10 mins followed by substrate addition by FRET assay. Particulars: dose 5-50 µM.
The test system is the same in assay [6]. The experiment in a line: Inhibition of recombinant SARS-COV2 main protease A191TMSK mutant expressed in Escherichia coli BL21 (DE3) using DABCYL-KTSAVLQSGFRKME-EDANS-NH2 as fluorogenic substrate at 5 to 50 uM preincubated for 10 mins followed by substrate addition by FRET assay. Particulars: dose 5-50 µM.
The test system is the same in assay [7]. The assay can be described thus: Inhibition of recombinant SARS-COV2 main protease L232TMSK mutant expressed in Escherichia coli BL21 (DE3) using DABCYL-KTSAVLQSGFRKME-EDANS-NH2 as fluorogenic substrate at 5 to 50 uM preincubated for 10 mins followed by substrate addition by FRET assay. Particulars: dose 5-50 µM.
Assay [8] shares this test system. The assay can be described thus: Inhibition of recombinant SARS-COV2 main protease A255TMSK mutant expressed in Escherichia coli BL21 (DE3) using DABCYL-KTSAVLQSGFRKME-EDANS-NH2 as fluorogenic substrate at 5 to 50 uM preincubated for 10 mins followed by substrate addition by FRET assay. Particulars: dose 5-50 µM.
Assay [9] relates to Replicase polyprotein 1ab (Severe acute respiratory syndrome coronavirus 2), P0DTD1 [S46A]. The assay can be described thus: Inhibition of recombinant SARS-COV2 main protease S46A mutant expressed in Escherichia coli BL21 (DE3) using DABCYL-KTSAVLQSGFRKME-EDANS-NH2 as fluorogenic substrate at 16 to 100 nM preincubated for 10 mins followed by substrate addition by FRET assay. The following applies: dose 16-100 nM.

Assay [10] concerns Replicase polyprotein 1ab (Severe acute respiratory syndrome coronavirus 2), P0DTD1 [L50A]. The assay can be described thus: Inhibition of recombinant SARS-COV2 main protease L50A mutant expressed in Escherichia coli BL21 (DE3) using DABCYL-KTSAVLQSGFRKME-EDANS-NH2 as fluorogenic substrate at 16 to 100 nM preincubated for 10 mins followed by substrate addition by FRET assay. Particulars: dose 16-100 nM.

Assay [11] deals with Replicase polyprotein 1ab (Severe acute respiratory syndrome coronavirus 2), P0DTD1 [N72A]. The assay can be described thus: Inhibition of recombinant SARS-COV2 main protease N72A mutant expressed in Escherichia coli BL21 (DE3) using DABCYL-KTSAVLQSGFRKME-EDANS-NH2 as fluorogenic substrate at 16 to 100 nM preincubated for 10 mins followed by substrate addition by FRET assay. The following applies: dose 16-100 nM.

For assay [12], the system named is Replicase polyprotein 1ab (Severe acute respiratory syndrome coronavirus 2), P0DTD1 [N142A]. The assay can be described thus: Inhibition of recombinant SARS-COV2 main protease N142A mutant expressed in Escherichia coli BL21 (DE3) using DABCYL-KTSAVLQSGFRKME-EDANS-NH2 as fluorogenic substrate at 16 to 100 nM preincubated for 10 mins followed by substrate addition by FRET assay. Particulars: dose 16-100 nM.

For assay [13], the system named is Replicase polyprotein 1ab (Severe acute respiratory syndrome coronavirus 2), P0DTD1 [V186A]. The assay can be described thus: Inhibition of recombinant SARS-COV2 main protease V186A mutant expressed in Escherichia coli BL21 (DE3) using DABCYL-KTSAVLQSGFRKME-EDANS-NH2 as fluorogenic substrate at 16 to 100 nM preincubated for 10 mins followed by substrate addition by FRET assay. The following applies: dose 16-100 nM.

Assay [14] relates to Replicase polyprotein 1ab (Severe acute respiratory syndrome coronavirus 2), P0DTD1 [UNDEFINED MUTATION]. The assay can be described thus: Inhibition of recombinant SARS-COV2 main protease S46TMSK mutant expressed in Escherichia coli BL21 (DE3) using DABCYL-KTSAVLQSGFRKME-EDANS-NH2 as fluorogenic substrate at 16 to 1000 nM preincubated for 10 mins followed by substrate addition by FRET assay. Particulars: dose 16-1000 nM.

The test system is the same in assay [15]. The assay can be described thus: Inhibition of recombinant SARS-COV2 main protease L50TMSK mutant expressed in Escherichia coli BL21 (DE3) using DABCYL-KTSAVLQSGFRKME-EDANS-NH2 as fluorogenic substrate at 16 to 1000 nM preincubated for 10 mins followed by substrate addition by FRET assay. The following applies: dose 16-1000 nM.
The test system is the same in assay [16]. The assay can be described thus: Inhibition of recombinant SARS-COV2 main protease N72TMSK mutant expressed in Escherichia coli BL21 (DE3) using DABCYL-KTSAVLQSGFRKME-EDANS-NH2 as fluorogenic substrate at 16 to 1000 nM preincubated for 10 mins followed by substrate addition by FRET assay. The following applies: dose 16-1000 nM.
Assay [17] shares this test system. The assay can be described thus: Inhibition of recombinant SARS-COV2 main protease N142TMSK mutant expressed in Escherichia coli BL21 (DE3) using DABCYL-KTSAVLQSGFRKME-EDANS-NH2 as fluorogenic substrate at 16 to 1000 nM preincubated for 10 mins followed by substrate addition by FRET assay. Particulars: dose 16-1000 nM.
Assay [18] has the same test system. The experiment in a line: Inhibition of recombinant SARS-COV2 main protease V186TMSK mutant expressed in Escherichia coli BL21 (DE3) using DABCYL-KTSAVLQSGFRKME-EDANS-NH2 as fluorogenic substrate at 16 to 1000 nM preincubated for 10 mins followed by substrate addition by FRET assay. Particulars: dose 16-1000 nM.
Assay [19] has the same test system. The experiment in a line: Inhibition of recombinant SARS-COV2 main protease A255TMSK mutant expressed in Escherichia coli BL21 (DE3) using DABCYL-KTSAVLQSGFRKME-EDANS-NH2 as fluorogenic substrate at 16 to 1000 nM preincubated for 10 mins followed by substrate addition by FRET assay. Particulars: dose 16-1000 nM.
In assay [20] the test system is Replicase polyprotein 1ab (Severe acute respiratory syndrome coronavirus 2), P0DTD1 [N142L]. The assay can be described thus: Inhibition of SARS-COV2 main protease N142L mutant assessed as fold increase in IC50.
The subject of assay [21] is Replicase polyprotein 1ab (Severe acute respiratory syndrome coronavirus 2), P0DTD1 [UNDEFINED MUTATION]. The assay can be described thus: Activation of recombinant SARS-COV2 main protease V297TMSK mutant expressed in Escherichia coli BL21 (DE3) using DABCYL-KTSAVLQSGFRKME-EDANS-NH2 as fluorogenic substrate at 1.5 to 50 uM preincubated for 10 mins followed by substrate addition by FRET assay. Particulars: filed as activator, dose 1.5-50 µM.

The test system is the same in assay [22]. The assay can be described thus: Activation of recombinant SARS-COV2 main protease V297TFAK mutant expressed in Escherichia coli BL21 (DE3) using DABCYL-KTSAVLQSGFRKME-EDANS-NH2 as fluorogenic substrate at 1.5 to 50 uM preincubated for 10 mins followed by substrate addition by FRET assay. Particulars: filed as activator, dose 1.5-50 µM.
The test system is the same in assay [23]. The assay can be described thus: Activation of recombinant SARS-COV2 main protease I213TMSK mutant expressed in Escherichia coli BL21 (DE3) using DABCYL-KTSAVLQSGFRKME-EDANS-NH2 as fluorogenic substrate at 15 uM preincubated for 10 mins followed by substrate addition by FRET assay. The following applies: filed as activator.
Assay [24] shares this test system. The assay can be described thus: Activation of recombinant SARS-COV2 main protease I213TFAK mutant expressed in Escherichia coli BL21 (DE3) using DABCYL-KTSAVLQSGFRKME-EDANS-NH2 as fluorogenic substrate at 15 uM preincubated for 10 mins followed by substrate addition by FRET assay. The following applies: filed as activator.

Calls of active or inactive are those of the source. The calls are words filed in the database; no cut-off is given here.

As to `CCCC[C@@H](C=O)NC(=O)[C@H](CC(C)C)NC(=O)OCc1ccccc1`, the inhibition entry in assay [1], in [2], in assay [3], in [4], in assay [5] and in assay [6] was “Dose-Dependent Effect” in each case. Besides, the inhibition entry in assay [7] and in [8] was “Dose-Dependent Effect” in each case.
With `CC(=O)[C@@H]1CSCC(=O)N[C@H](Cc2ccc(O)cc2)C(=O)N[C@@H](CC(C)C)C(=O)N[C@@H](CCC(N)=O)C(=O)N[C@@H](Cc2ccc(O)cc2)C(=O)N[C@@H](C)C(=O)N[C@@H](C(C)C)C(=O)N[C@@H](CC(C)C)C(=O)N[C@@H](CCCNC(=N)N)C(=O)N[C@@H](Cc2c[nH]cn2)C(=O)N[C@@H](CCCCN)C(=O)N[C@@H](CCCNC(=N)N)C(=O)N[C@@H](CCCNC(=N)N)C(=O)N[C@@H](CCC(=O)O)C(=O)C1`, the inhibition result in [9], in [10], in [11], in assay [12], in assay [13] and in assay [14] was “Dose-Dependent Effect” each time. In addition, the inhibition entry in assay [15], in [16], in [17], in assay [18] and in assay [19] was “Dose-Dependent Effect” in each case. The fold change (FC) in assay [20] was 5.
`CCOc1cc2ncc(C#N)c(Nc3ccc(F)c(Cl)c3)c2cc1NC(=O)/C=C/CN(C)C` [PELITINIB]: the Activity entry in assay [21] and in assay [22] was “Dose-Dependent Effect” in each case. For the same compound, the result in [23] and in [24] was Active.

For the origin of these results see ChEMBL document CHEMBL5380815, “Probing Ligand Binding Sites on Large Proteins by Nuclear Magnetic Resonance Spectroscopy of Genetically Encoded Non-Canonical Amino Acids” (J Med Chem, 2023).
